Data reported in paper PMC5980577 (CPT: Pharmacometrics & Systems Pharmacology, 2018).
Like-named read-outs stand apart in the source and are kept apart here.

What was measured:
[1] = Circulating metabolites measured in plasma in clinical studies; type: in vivo, human; conditions: all studies
CYP2E1 = CYP2E1 contribution to metabolism and retrograde intrinsic clearance; type: in vitro ADME, human; conditions: retrograde approach
P-glycoprotein (P-gp) = P-glycoprotein (P-gp) (Homo sapiens, UniProt P08183); test: In vitro efflux transporter substrate study, P-gp; type: in vitro ADME
CYP3A4/5 [2] = test: CYP3A4/5 reversible; type: in vitro ADME; conditions: human
CYP2C9 = CYP2C9 contribution to metabolism and retrograde intrinsic clearance; type: in vitro ADME, human; conditions: retrograde approach
[3] = doses studied 20–240 mg; cited from earlier work
[4] = multiple doses 80 mg once daily, no inducer
CYP1A2 = CYP1A2 contribution to metabolism and retrograde intrinsic clearance; type: in vitro ADME, human; conditions: retrograde approach
[5] = type: in vivo; conditions: human, plasma, oral, 80 mg
CYP3A4/5 [6] = conditions: in vitro data; cited from earlier work
[7] = Fraction unbound in microsomal incubation; type: in vitro ADME; conditions: microsomes (microsomal incubation)
BCRP [8] = molecular target: T1, BCRP (Homo sapiens, UniProt Q9UNQ0); test: BCRP inhibition, basic static model; type: in vitro ADME
T1 sequence (Q9UNQ0 1-655): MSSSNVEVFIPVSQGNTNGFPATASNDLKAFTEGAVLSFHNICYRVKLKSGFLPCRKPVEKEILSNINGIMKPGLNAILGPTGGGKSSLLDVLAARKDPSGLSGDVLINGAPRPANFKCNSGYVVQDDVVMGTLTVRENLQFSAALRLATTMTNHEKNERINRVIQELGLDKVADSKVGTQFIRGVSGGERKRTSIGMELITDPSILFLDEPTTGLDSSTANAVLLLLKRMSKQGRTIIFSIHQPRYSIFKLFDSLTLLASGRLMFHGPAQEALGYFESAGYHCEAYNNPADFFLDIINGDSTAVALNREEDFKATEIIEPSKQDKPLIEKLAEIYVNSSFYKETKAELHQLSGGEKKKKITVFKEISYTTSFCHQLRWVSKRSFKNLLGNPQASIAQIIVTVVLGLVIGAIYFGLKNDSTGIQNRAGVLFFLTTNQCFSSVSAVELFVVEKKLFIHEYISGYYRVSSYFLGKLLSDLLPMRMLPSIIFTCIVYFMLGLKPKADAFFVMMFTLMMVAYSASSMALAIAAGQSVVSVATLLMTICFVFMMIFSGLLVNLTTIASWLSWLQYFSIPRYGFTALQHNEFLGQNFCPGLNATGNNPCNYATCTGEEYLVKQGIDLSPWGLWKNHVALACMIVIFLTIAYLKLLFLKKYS

CYP2C8 = molecular target: T2, CYP2C8 (Homo sapiens, UniProt P10632); test: CYP2C8 reversible; type: in vitro ADME
T2 sequence (P10632 1-490): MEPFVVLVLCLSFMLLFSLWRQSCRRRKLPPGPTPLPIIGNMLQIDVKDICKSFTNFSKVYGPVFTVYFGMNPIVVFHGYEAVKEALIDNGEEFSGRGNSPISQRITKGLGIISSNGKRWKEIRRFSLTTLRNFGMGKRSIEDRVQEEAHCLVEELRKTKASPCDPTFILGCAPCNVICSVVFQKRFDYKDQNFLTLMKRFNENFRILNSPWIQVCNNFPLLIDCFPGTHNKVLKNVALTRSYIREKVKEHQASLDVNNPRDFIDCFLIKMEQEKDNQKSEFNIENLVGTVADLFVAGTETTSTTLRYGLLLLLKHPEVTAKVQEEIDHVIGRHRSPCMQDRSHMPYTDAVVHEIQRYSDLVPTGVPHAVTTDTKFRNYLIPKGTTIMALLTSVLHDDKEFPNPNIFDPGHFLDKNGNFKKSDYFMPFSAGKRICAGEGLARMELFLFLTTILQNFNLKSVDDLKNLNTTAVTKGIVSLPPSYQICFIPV

CYP2A6 = CYP2A6 contribution to metabolism and retrograde intrinsic clearance; type: in vitro ADME, human; conditions: retrograde approach
OATP1B1 = molecular target: T3, OATP1B1 (Homo sapiens, UniProt Q9Y6L6); test: OATP1B1 inhibition, basic static model; type: in vitro ADME
T3 sequence (Q9Y6L6 1-691): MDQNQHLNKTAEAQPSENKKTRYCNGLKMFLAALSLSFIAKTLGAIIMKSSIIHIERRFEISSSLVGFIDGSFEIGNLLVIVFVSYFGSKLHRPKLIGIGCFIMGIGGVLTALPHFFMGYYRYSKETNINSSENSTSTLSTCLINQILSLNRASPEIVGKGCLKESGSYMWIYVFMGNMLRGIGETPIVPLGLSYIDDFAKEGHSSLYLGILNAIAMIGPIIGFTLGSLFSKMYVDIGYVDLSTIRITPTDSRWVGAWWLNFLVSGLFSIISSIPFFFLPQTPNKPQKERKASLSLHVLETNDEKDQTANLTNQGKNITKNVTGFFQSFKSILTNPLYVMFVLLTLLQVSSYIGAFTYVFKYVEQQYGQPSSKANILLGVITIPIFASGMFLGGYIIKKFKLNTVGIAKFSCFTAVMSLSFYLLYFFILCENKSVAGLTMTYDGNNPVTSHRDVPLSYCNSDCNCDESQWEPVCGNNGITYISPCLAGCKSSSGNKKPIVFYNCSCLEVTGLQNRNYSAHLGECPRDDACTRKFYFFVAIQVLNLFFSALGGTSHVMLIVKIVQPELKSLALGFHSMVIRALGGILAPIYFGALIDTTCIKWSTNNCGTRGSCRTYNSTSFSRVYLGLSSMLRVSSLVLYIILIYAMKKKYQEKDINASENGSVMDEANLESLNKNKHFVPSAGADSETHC

CYP3A5 = CYP3A5 contribution to metabolism and retrograde intrinsic clearance; type: in vitro ADME, human; conditions: retrograde approach
[9] = cited from earlier work
BCRP [10] = molecular target: T1, BCRP; test: In vitro efflux transporter substrate study, BCRP; type: in vitro ADME
CYP3A4 = CYP3A4 contribution to metabolism and retrograde intrinsic clearance; type: in vitro ADME, human; conditions: retrograde approach

Sequence of P-glycoprotein (P-gp) (P08183 whole entry): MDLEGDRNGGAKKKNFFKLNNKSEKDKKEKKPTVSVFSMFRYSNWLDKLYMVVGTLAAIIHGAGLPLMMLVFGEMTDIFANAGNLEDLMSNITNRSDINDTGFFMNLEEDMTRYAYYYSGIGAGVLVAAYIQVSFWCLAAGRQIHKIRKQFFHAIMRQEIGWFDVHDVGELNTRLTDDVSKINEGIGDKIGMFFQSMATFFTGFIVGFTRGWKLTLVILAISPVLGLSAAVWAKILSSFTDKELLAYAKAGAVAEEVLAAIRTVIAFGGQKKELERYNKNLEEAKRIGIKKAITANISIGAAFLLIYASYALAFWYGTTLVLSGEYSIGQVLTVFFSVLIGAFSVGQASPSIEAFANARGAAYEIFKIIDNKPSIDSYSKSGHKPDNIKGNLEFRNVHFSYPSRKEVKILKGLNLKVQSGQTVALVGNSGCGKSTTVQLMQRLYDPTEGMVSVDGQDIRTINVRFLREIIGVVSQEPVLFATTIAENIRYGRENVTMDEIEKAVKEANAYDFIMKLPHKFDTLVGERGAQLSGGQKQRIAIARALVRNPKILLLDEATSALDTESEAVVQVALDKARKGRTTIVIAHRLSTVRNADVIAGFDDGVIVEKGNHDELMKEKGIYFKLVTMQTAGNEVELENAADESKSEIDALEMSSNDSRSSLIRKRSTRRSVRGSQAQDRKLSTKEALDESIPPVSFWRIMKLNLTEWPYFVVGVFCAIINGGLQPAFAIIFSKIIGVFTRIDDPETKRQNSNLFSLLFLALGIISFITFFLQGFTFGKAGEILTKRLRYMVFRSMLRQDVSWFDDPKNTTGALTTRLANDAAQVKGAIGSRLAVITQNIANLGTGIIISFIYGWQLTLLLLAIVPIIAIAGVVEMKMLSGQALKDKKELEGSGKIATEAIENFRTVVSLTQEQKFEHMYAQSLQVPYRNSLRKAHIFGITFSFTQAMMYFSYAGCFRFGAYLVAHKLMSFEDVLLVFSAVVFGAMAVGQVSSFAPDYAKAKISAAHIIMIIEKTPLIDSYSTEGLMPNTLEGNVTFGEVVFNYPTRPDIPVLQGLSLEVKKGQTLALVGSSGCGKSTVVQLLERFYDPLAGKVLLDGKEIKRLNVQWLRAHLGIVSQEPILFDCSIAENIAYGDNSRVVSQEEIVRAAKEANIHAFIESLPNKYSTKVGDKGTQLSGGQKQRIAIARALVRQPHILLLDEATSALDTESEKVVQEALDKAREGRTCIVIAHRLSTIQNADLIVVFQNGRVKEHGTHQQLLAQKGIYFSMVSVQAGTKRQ

C=CC(=O)Nc1cc(Nc2nccc(-c3cn(C)c4ccccc34)n2)c(OC)cc1N(C)CCNC [AZ7550]
contribution of metabolite to total drug-related exposure [1]: < 10%

C=CC(=O)Nc1cc(Nc2nccc(-c3cn(C)c4ccccc34)n2)c(OC)cc1N(C)CCN(C)C [Osimertinib]
CYP2E1 CLint (CYP2E1): 0.111 µL/min/pmol of isoform
substrate for P-gp (P-glycoprotein (P-gp)): substrate
Ki (CYP3A4/5 [2]): 2550 nM
CYP2C9 CLint (CYP2C9): 0.479 µL/min/pmol of isoform
maximum tolerated dose [3]: no maximum tolerated dose was reached
Css,max Geo.mean (range) [%CV], observed [4]: 545 (258 to 1,220) nM
CYP1A2 CLint (CYP1A2): 0.520 µL/min/pmol of isoform
AUC [5]: 11.5 µM·h
fraction metabolized (fm) CYP3A (CYP3A4/5 [6]): 54%
fraction unbound [7]: 0.0261
Ki (BCRP [8]): 2000 nM
BCRP Potential for DDI (BCRP [8]; basic static model): likely
Ki (CYP2C8): 11.4 µM
CYP2A6 CLint (CYP2A6): 1.749 µL/min/pmol of isoform
Ki (OATP1B1): 22 µM
Ki (OATP1B1; human): 52.5 µM
CYP3A5 CLint (CYP3A5): 0.210 µL/min/pmol of isoform
median (range) Tmax [9]: 6 (3–24) hours
median time of maximum plasma concentration (Tmax) ([9]; oncology patients): 6 h
oral clearance ([9]; oncology patients): 14.2 L/h
volume of distribution ([9]; oncology patients): around 997 L
increase of Cmax and AUC with dose ([9]; single oral doses of 20 to 240 mg): dose proportional
substrate for BCRP (BCRP [10]): substrate
CYP3A4 CLint (CYP3A4): 0.731 µL/min/pmol of isoform
